Counter-ions that a name gives are not always drawn.
System: NCI-H292 lung cancer cells
Assay: FDA drug screening, complete media vs cholesterol-free media without statin (TABLE 1)
Assay type: cell-based, human
Settings: Complete minus Cholesterol-free; greater than 0 enhanced anti-cancer activity, about 0 neutral, below 0 antagonist

`CN(C)CCN(Cc1ccccc1)c1ccccn1` [Tripelennamine (hydrochloride)] and `Cc1ccc(/C(=C\CN2CCCC2)c2ccccn2)cc1` [Triprolidine (hydrochloride monohydrate)] are the same in Difference: −0.13 for the first, −0.13 for the second.

Same assay, conditions: Complete minus Cholesterol-free; greater than 0 enhanced anti-cancer activity, about 0 neutral, below 0 antagonists

`CSc1nc2cc(Cl)c(Oc3cccc(Cl)c3Cl)cc2[nH]1` [Triclabendazole] was tested, and the Difference was −0.64.

Same assay, conditions: NCI-H292 cells in cholesterol-free media without statin

For `CSc1nc2cc(Cl)c(Oc3cccc(Cl)c3Cl)cc2[nH]1` [Triclabendazole], the Cholesterol-free was 1.673.

Same assay, conditions: NCI-H292 cells in complete media

Compound `CSc1nc2cc(Cl)c(Oc3cccc(Cl)c3Cl)cc2[nH]1` [Triclabendazole] has a Complete of 1.028.

Same assay, conditions: NCI-H292 cells, FDA drug library screen, cholesterol-free media without statin

Going from `CN(C)CCN(Cc1ccccc1)c1ccccn1` [Tripelennamine (hydrochloride)] to `Cc1ccc(/C(=C\CN2CCCC2)c2ccccn2)cc1` [Triprolidine (hydrochloride monohydrate)], the Cholesterol-free rises from 1.185 to 1.24.

Same assay, conditions: NCI-H292 cells, FDA drug library screen, complete media

First: CN(C)CCN(Cc1ccccc1)c1ccccn1 [Tripelennamine (hydrochloride)]
Second: Cc1ccc(/C(=C\CN2CCCC2)c2ccccn2)cc1 [Triprolidine (hydrochloride monohydrate)]
The Complete of the first is lower: 1.051 for the first, 1.107 for the second.

Same assay, conditions: NCI-H292 cells, cholesterol-free media without statin

Going from `NS(=O)(=O)c1cc2c(cc1Cl)NC(C(Cl)Cl)NS2(=O)=O` (centres unmarked) [Trichlormethiazide] to `CN1[C@@H]2CC[C@H]1C[C@@H](OC(=O)c1c[nH]c3ccccc13)C2` [Tropisetron], the Cholesterol-free falls from 1.351 to 1.242.

Going from `CC(C)(C)c1cc(-c2cc(-c3ccc(C(=O)O)cc3)ccc2OCCO)ccc1N1CCCC1` [Trifarotene] to `OC(CCN1CCCCC1)(c1ccccc1)C1CCCCC1` (centres unmarked) [Trihexyphenidyl (hydrochloride)], the Cholesterol-free rises from 1.099 to 1.407.

With `NC(CO)(CO)CO` [Trometamol] the Cholesterol-free was 1.471.

Same assay, conditions: NCI-H292 cells, cholesterol-free media without statin, FDA drug library screen

Going from `Nc1nc(N)c2nc(-c3ccccc3)c(N)nc2n1` [Triamterene] to `COc1cc(Cc2cnc(N)nc2N)cc(OC)c1OC` [Trimethoprim], the Cholesterol-free falls from 0.6087 to 0.567.

Going from `CC(=O)Oc1cc(C(F)(F)F)ccc1C(=O)O` [Triflusal] to `COc1cc(C(=O)NCc2ccc(OCCN(C)C)cc2)cc(OC)c1OC` [Trimethobenzamide hydrochloride], the Cholesterol-free falls from 1.019 to 0.8254.

Compared with `Cc1cc2cc3c(C)cc(=O)oc3c(C)c2o1` [Trioxsalen], `Cc1c(C)c2c(c(C)c1O)CCC(C)(COc1ccc(CC3SC(=O)NC3=O)cc1)O2` (centres unmarked) [Troglitazone] is lower in Cholesterol-free: 1.107 for the first, 0.7956 for the second.

Same assay, conditions: NCI-H292 cells, complete media

Going from `NS(=O)(=O)c1cc2c(cc1Cl)NC(C(Cl)Cl)NS2(=O)=O` (centres unmarked) [Trichlormethiazide] to `CN1[C@@H]2CC[C@H]1C[C@@H](OC(=O)c1c[nH]c3ccccc13)C2` [Tropisetron], the Complete falls from 0.9482 to 0.8867.

First: CC(C)(C)c1cc(-c2cc(-c3ccc(C(=O)O)cc3)ccc2OCCO)ccc1N1CCCC1 [Trifarotene]
Second: OC(CCN1CCCCC1)(c1ccccc1)C1CCCCC1 (centres unmarked) [Trihexyphenidyl (hydrochloride)]
The Complete of the first is lower: 0.7867 for the first, 0.9676 for the second.

`NC(CO)(CO)CO` [Trometamol] gave a Complete of 1.133.

Same assay, conditions: NCI-H292 cells, complete media, FDA drug library screen

Going from `Nc1nc(N)c2nc(-c3ccccc3)c(N)nc2n1` [Triamterene] to `COc1cc(Cc2cnc(N)nc2N)cc(OC)c1OC` [Trimethoprim], the Complete falls from 1.304 to 1.096.

First: CC(=O)Oc1cc(C(F)(F)F)ccc1C(=O)O [Triflusal]
Second: COc1cc(C(=O)NCc2ccc(OCCN(C)C)cc2)cc(OC)c1OC [Trimethobenzamide hydrochloride]
The Complete of the first is higher: 1.117 for the first, 0.9013 for the second.

Going from `Cc1cc2cc3c(C)cc(=O)oc3c(C)c2o1` [Trioxsalen] to `Cc1c(C)c2c(c(C)c1O)CCC(C)(COc1ccc(CC3SC(=O)NC3=O)cc1)O2` (centres unmarked) [Troglitazone], the Complete rises from 1.239 to 1.359.

Same assay, conditions: complete vs cholesterol-free media; >0 enhanced anti-cancer activity, about 0 neutral, <0 antagonist

Going from `Nc1nc(N)c2nc(-c3ccccc3)c(N)nc2n1` [Triamterene] to `COc1cc(Cc2cnc(N)nc2N)cc(OC)c1OC` [Trimethoprim], the Difference falls from 0.69 to 0.53.

Compared with `CC(=O)Oc1cc(C(F)(F)F)ccc1C(=O)O` [Triflusal], `COc1cc(C(=O)NCc2ccc(OCCN(C)C)cc2)cc(OC)c1OC` [Trimethobenzamide hydrochloride] is lower in Difference: 0.10 for the first, 0.08 for the second.

Compared with `Cc1cc2cc3c(C)cc(=O)oc3c(C)c2o1` [Trioxsalen], `Cc1c(C)c2c(c(C)c1O)CCC(C)(COc1ccc(CC3SC(=O)NC3=O)cc1)O2` (centres unmarked) [Troglitazone] is higher in Difference: 0.13 for the first, 0.56 for the second.

Same assay, conditions: complete vs cholesterol-free media; greater than 0 enhanced anti-cancer activity, about 0 neutral, below 0 antagonists

Compared with `NS(=O)(=O)c1cc2c(cc1Cl)NC(C(Cl)Cl)NS2(=O)=O` (centres unmarked) [Trichlormethiazide], `CN1[C@@H]2CC[C@H]1C[C@@H](OC(=O)c1c[nH]c3ccccc13)C2` [Tropisetron] is higher in Difference: −0.40 for the first, −0.36 for the second.

Going from `CC(C)(C)c1cc(-c2cc(-c3ccc(C(=O)O)cc3)ccc2OCCO)ccc1N1CCCC1` [Trifarotene] to `OC(CCN1CCCCC1)(c1ccccc1)C1CCCCC1` (centres unmarked) [Trihexyphenidyl (hydrochloride)], the Difference falls from −0.31 to −0.44.

`NC(CO)(CO)CO` [Trometamol] showed a Difference of −0.34.

System: NCI-H292 lung cancer cells
Assay: FDA drug screening, complete media vs cholesterol-free media with simvastatin (TABLE 2)
Assay type: cell-based, human
Settings: NCI-H292 cells, FDA drug library screen, cholesterol-free media with simvastatin 0.04 μM

First: CC(C)(C)c1cc(-c2cc(-c3ccc(C(=O)O)cc3)ccc2OCCO)ccc1N1CCCC1 [Trifarotene]
Second: Cc1c(C)c2c(c(C)c1O)CCC(C)(COc1ccc(CC3SC(=O)NC3=O)cc1)O2 (centres unmarked) [Troglitazone]
The “Cholesterol-free media + simvastatin (0.04 μM)” value of the first is lower: 0.9343 for the first, 0.9725 for the second.

Compared with `CC(=O)Oc1cc(C(F)(F)F)ccc1C(=O)O` [Triflusal], `CN1[C@@H]2CC[C@H]1C[C@@H](OC(=O)c1c[nH]c3ccccc13)C2` [Tropisetron] is lower in “Cholesterol-free media + simvastatin (0.04 μM)” value: 1.154 for the first, 0.8445 for the second.

Going from `Cc1cc2cc3c(C)cc(=O)oc3c(C)c2o1` [Trioxsalen] to `NC(CO)(CO)CO` [Trometamol], the “Cholesterol-free media + simvastatin (0.04 μM)” value rises from 1.056 to 1.116.

Same assay, conditions: NCI-H292 cells, FDA drug library screen, complete media

Going from `CSc1nc2cc(Cl)c(Oc3cccc(Cl)c3Cl)cc2[nH]1` [Triclabendazole] to `Cc1cc2cc3c(C)cc(=O)oc3c(C)c2o1` [Trioxsalen], the “Complete Media” value falls from 1.193 to 0.9717.

Compared with `CC(C)(C)c1cc(-c2cc(-c3ccc(C(=O)O)cc3)ccc2OCCO)ccc1N1CCCC1` [Trifarotene], `Cc1c(C)c2c(c(C)c1O)CCC(C)(COc1ccc(CC3SC(=O)NC3=O)cc1)O2` (centres unmarked) [Troglitazone] is higher in “Complete Media” value: 0.8355 for the first, 0.8929 for the second.

Compared with `CC(=O)Oc1cc(C(F)(F)F)ccc1C(=O)O` [Triflusal], `CN1[C@@H]2CC[C@H]1C[C@@H](OC(=O)c1c[nH]c3ccccc13)C2` [Tropisetron] is higher in “Complete Media” value: 1.083 for the first, 1.139 for the second.

With `NC(CO)(CO)CO` [Trometamol] the “Complete Media” value was 0.9694.

Same assay, conditions: NCI-H292 cells, FDA library drug in cholesterol-free media with simvastatin 0.04 μM

Compared with `Nc1nc(N)c2nc(-c3ccccc3)c(N)nc2n1` [Triamterene], `COc1cc(Cc2cnc(N)nc2N)cc(OC)c1OC` [Trimethoprim] is lower in “Cholesterol-free media + simvastatin (0.04 μM)” value: 1.582 for the first, 1.335 for the second.

First: COc1cc(C(=O)NCc2ccc(OCCN(C)C)cc2)cc(OC)c1OC [Trimethobenzamide hydrochloride]
Second: CN(C)CCN(Cc1ccccc1)c1ccccn1 [Tripelennamine (hydrochloride)]
The “Cholesterol-free media + simvastatin (0.04 μM)” value of the first is higher: 1.241 for the first, 1.12 for the second.

For `Cc1ccc(/C(=C\CN2CCCC2)c2ccccn2)cc1` [Triprolidine (hydrochloride monohydrate)], the “Cholesterol-free media + simvastatin (0.04 μM)” value was 1.806.

Same assay, conditions: NCI-H292 cells, FDA library drug in complete media

Going from `Nc1nc(N)c2nc(-c3ccccc3)c(N)nc2n1` [Triamterene] to `COc1cc(Cc2cnc(N)nc2N)cc(OC)c1OC` [Trimethoprim], the “Complete Media” value falls from 1.301 to 1.064.

Going from `COc1cc(C(=O)NCc2ccc(OCCN(C)C)cc2)cc(OC)c1OC` [Trimethobenzamide hydrochloride] to `CN(C)CCN(Cc1ccccc1)c1ccccn1` [Tripelennamine (hydrochloride)], the “Complete Media” value falls from 0.874 to 0.8343.

In the case of `Cc1ccc(/C(=C\CN2CCCC2)c2ccccn2)cc1` [Triprolidine (hydrochloride monohydrate)], the “Complete Media” value is reported as 1.191.

Same assay, conditions: NCI-H292 cells, cholesterol-free media with simvastatin 0.04 μM; cell growth value in FDA drug screen

With `NS(=O)(=O)c1cc2c(cc1Cl)NC(C(Cl)Cl)NS2(=O)=O` (centres unmarked) [Trichlormethiazide] the “Cholesterol-free media + simvastatin (0.04 μM)” value was 1.02.

Same assay, conditions: NCI-H292 cells, complete media; cell growth value in FDA drug screen

In the case of `NS(=O)(=O)c1cc2c(cc1Cl)NC(C(Cl)Cl)NS2(=O)=O` (centres unmarked) [Trichlormethiazide], the “Complete Media” value is reported as 1.045.

Same assay, conditions: NCI-H292 cells, drug in cholesterol-free media with simvastatin 0.04 μM

With `OC(CCN1CCCCC1)(c1ccccc1)C1CCCCC1` (centres unmarked) [Trihexyphenidyl (hydrochloride)] the “Cholesterol-free media + simvastatin (0.04 μM)” value was 0.9099.

Same assay, conditions: NCI-H292 cells, drug in complete media

For `OC(CCN1CCCCC1)(c1ccccc1)C1CCCCC1` (centres unmarked) [Trihexyphenidyl (hydrochloride)], the “Complete Media” value was 0.6915.

Same assay, conditions: complete media minus cholesterol-free media + simvastatin; >0 enhanced anti-cancer activity, about 0 neutral, <0 antagonist

First: NS(=O)(=O)c1cc2c(cc1Cl)NC(C(Cl)Cl)NS2(=O)=O (centres unmarked) [Trichlormethiazide]
Second: CSc1nc2cc(Cl)c(Oc3cccc(Cl)c3Cl)cc2[nH]1 [Triclabendazole]
The Difference of the first is lower: 0.02 for the first, 0.25 for the second.

With `CN1[C@@H]2CC[C@H]1C[C@@H](OC(=O)c1c[nH]c3ccccc13)C2` [Tropisetron] the Difference was 0.29.

Same assay, conditions: complete media vs cholesterol-free media + simvastatin (0.04 μM); >0 enhanced anti-cancer activity, about 0 neutral, <0 antagonist

First: Nc1nc(N)c2nc(-c3ccccc3)c(N)nc2n1 [Triamterene]
Second: COc1cc(Cc2cnc(N)nc2N)cc(OC)c1OC [Trimethoprim]
The Difference of the first is lower: −0.28 for the first, −0.27 for the second.

First: CC(C)(C)c1cc(-c2cc(-c3ccc(C(=O)O)cc3)ccc2OCCO)ccc1N1CCCC1 [Trifarotene]
Second: Cc1ccc(/C(=C\CN2CCCC2)c2ccccn2)cc1 [Triprolidine (hydrochloride monohydrate)]
The Difference of the first is higher: −0.10 for the first, −0.61 for the second.

First: CC(=O)Oc1cc(C(F)(F)F)ccc1C(=O)O [Triflusal]
Second: COc1cc(C(=O)NCc2ccc(OCCN(C)C)cc2)cc(OC)c1OC [Trimethobenzamide hydrochloride]
The Difference of the first is higher: −0.07 for the first, −0.37 for the second.

Going from `OC(CCN1CCCCC1)(c1ccccc1)C1CCCCC1` (centres unmarked) [Trihexyphenidyl (hydrochloride)] to `CN(C)CCN(Cc1ccccc1)c1ccccn1` [Tripelennamine (hydrochloride)], the Difference falls from −0.22 to −0.29.

`Cc1cc2cc3c(C)cc(=O)oc3c(C)c2o1` [Trioxsalen] and `Cc1c(C)c2c(c(C)c1O)CCC(C)(COc1ccc(CC3SC(=O)NC3=O)cc1)O2` (centres unmarked) [Troglitazone] are the same in Difference: −0.08 for the first, −0.08 for the second.

Compound `NC(CO)(CO)CO` [Trometamol] has a Difference of −0.15.

Source: patent US20250144067A1, “PERSONALIZED STARVATION THERAPY FOR CANCER” (Faeth Therapeutics, Inc., priority 2021, published 2025)
